Data on two compounds can be found in patent US8293682B2, “Growth regulators for gramineous weeds” (Rikengreen Co., Ltd., priority 2008, dated 2012).

The test system of test [1] is southern crabgrasses (Digitaria ciliaris Koel.). The test can be described thus: Test Example 5: field test in Manilagrass turf, inhibitory effect for ear emergence. The test is classed as in vivo. On the procedure: In a Manilagrass (Zoysia matrella) turf where southern crabgrasses (Digitaria ciliaris Koel.) were grown, a test zone of 1 m×1 m was provided. Benzyladenine (Beanine for painting; made by Rikengreen; containing 1% benzyladenine) and ethephon (Ethrel 10 soluble concentrate; Nissan Chemical Industries; containing 10% ethephon) were diluted in a predetermined amount of water. The respectively diluted solutions were applied to each test zone at the first application (Day 0) at a dose as indicated in Table, and after a lapse of 17 days the second application was carried out. The first application was conducted before the ear emergence of southern crabgrasses (Digitaria ciliaris Koel.). The amount of solution scattered was 150 mL/m^2 both in the first and second applications. The inhibitory effect for the ear emergence of southern crabgrasses (Digitaria ciliaris Koel.) within the area of 1 m×1 m was evaluated according to the standard as described in Table 7. […] The symbol “●” in Table 8 indicates the treatment with each agent, and “−” means untreated. Dose means the amount at a single application.

In test [2] the test system is annual bluegrass (Poa annua L.). The settings on record: cited from earlier work.

Consider `c1ccc(CNc2ncnc3nc[nH]c23)cc1` [Benzyladenine, 6-benzylaminopurine], for which the “Evaluation: index of inhibitory effect for ear emergence” value (shortened to “Evaluation: index of inhibitory effect”) in test [1] (Day 18, Benzyladenine 2.5 mg a.i./m^2, applied Day 0) was 0 (0% or more-less than 10%); in test [1] (Day 18, Benzyladenine 5 mg a.i./m^2, applied Day 0), 0 (0% or more-less than 10%); in test [1] (Day 18, Benzyladenine 10 mg a.i./m^2, applied Day 0), 2 (20% or more-less than 30%); in test [1] (Day 18, Benzyladenine 15 mg a.i./m^2, applied Day 0), 10 (100%); in test [1] (Day 26, Benzyladenine 2.5 mg a.i./m^2, applied Day 0), 0 (0% or more-less than 10%); in test [1] (Day 26, Benzyladenine 2.5 mg a.i./m^2, applied Day 0 and Day 17), 1 (10% or more-less than 20%). Besides, the “Evaluation: index of inhibitory effect” value in test [1] (Day 26, Benzyladenine 5 mg a.i./m^2, applied Day 0) is listed as 0 (0% or more-less than 10%); in test [1] (Day 26, Benzyladenine 5 mg a.i./m^2, applied Day 0 and Day 17) it was 2 (20% or more-less than 30%); in test [1] (Day 26, Benzyladenine 10 mg a.i./m^2, applied Day 0), 2 (20% or more-less than 30%); in test [1] (Day 26, Benzyladenine 10 mg a.i./m^2, applied Day 0 and Day 17), 6 (60% or more-less than 70%); in test [1] (Day 26, Benzyladenine 15 mg a.i./m^2, applied Day 0) it was 9 (90% or more-less than 100%); in test [1] (Day 26, Benzyladenine 15 mg a.i./m^2, applied Day 0 and Day 17), 10 (100%). Also, the “Evaluation: index of inhibitory effect” value was 0 (0% or more-less than 10%) in test [1] (Day 33, Benzyladenine 2.5 mg a.i./m^2, applied Day 0); 3 (30% or more-less than 40%) in test [1] (Day 33, Benzyladenine 2.5 mg a.i./m^2, applied Day 0 and Day 17); 1 (10% or more-less than 20%) in test [1] (Day 33, Benzyladenine 5 mg a.i./m^2, applied Day 0); 3 (30% or more-less than 40%) in test [1] (Day 33, Benzyladenine 5 mg a.i./m^2, applied Day 0 and Day 17); 5 (50% or more-less than 60%) in test [1] (Day 33, Benzyladenine 10 mg a.i./m^2, applied Day 0); 7 (70% or more-less than 80%) in test [1] (Day 33, Benzyladenine 10 mg a.i./m^2, applied Day 0 and Day 17). In addition, the “Evaluation: index of inhibitory effect” value in test [1] (Day 33, Benzyladenine 15 mg a.i./m^2, applied Day 0) is reported as 7 (70% or more-less than 80%); in test [1] (Day 33, Benzyladenine 15 mg a.i./m^2, applied Day 0 and Day 17), 8 (80% or more-less than 90%); in test [1] (Day 41, Benzyladenine 2.5 mg a.i./m^2, applied Day 0), 0 (0% or more-less than 10%); in test [1] (Day 41, Benzyladenine 2.5 mg a.i./m^2, applied Day 0 and Day 17), 1 (10% or more-less than 20%); in test [1] (Day 41, Benzyladenine 5 mg a.i./m^2, applied Day 0), 2 (20% or more-less than 30%); in test [1] (Day 41, Benzyladenine 5 mg a.i./m^2, applied Day 0 and Day 17), 5 (50% or more-less than 60%). The “Evaluation: index of inhibitory effect” value in test [1] (Day 41, Benzyladenine 10 mg a.i./m^2, applied Day 0) was 2 (20% or more-less than 30%); in test [1] (Day 41, Benzyladenine 10 mg a.i./m^2, applied Day 0 and Day 17), 6 (60% or more-less than 70%); in test [1] (Day 41, Benzyladenine 15 mg a.i./m^2, applied Day 0), 4 (40% or more-less than 50%); in test [1] (Day 41, Benzyladenine 15 mg a.i./m^2, applied Day 0 and Day 17), 8 (80% or more-less than 90%).

Consider `O=P(O)(O)CCCl` [Ethephon, 2-chloroethylphosphonic acid], for which the “Evaluation: index of inhibitory effect” value is listed as 2 (20% or more-less than 30%) in test [1] (Day 18, Ethephon 50 mg a.i./m^2, applied Day 0); 3 (30% or more-less than 40%) in test [1] (Day 26, Ethephon 50 mg a.i./m^2, applied Day 0); 4 (40% or more-less than 50%) in test [1] (Day 26, Ethephon 50 mg a.i./m^2, applied Day 0 and Day 17); 1 (10% or more-less than 20%) in test [1] (Day 33, Ethephon 50 mg a.i./m^2, applied Day 0); 5 (50% or more-less than 60%) in test [1] (Day 33, Ethephon 50 mg a.i./m^2, applied Day 0 and Day 17); 1 (10% or more-less than 20%) in test [1] (Day 41, Ethephon 50 mg a.i./m^2, applied Day 0). Besides, the “Evaluation: index of inhibitory effect” value in test [1] (Day 41, Ethephon 50 mg a.i./m^2, applied Day 0 and Day 17) is given as 2 (20% or more-less than 30%). For the same compound, the “growth of annual bluegrass growing among Kentucky bluegrass” value in test [2] (Non-patent document 3, dose of 3.2 kg/hectare) is reported as “slowed growth”. Also, in test [2] (Non-patent document 4, 3.8-7.6 kg/hectare), the “ear emergence of annual bluegrass growing among bent grass” value is “inhibits the ear emergence”.
